Numbered stars: 1 amine (or outer) side, 2 acyl side, 3 side chain; on linkers, the order of the positions; unused ones are H or OH. Bridge positions count the residues as written; N and C are the ends. Square brackets hold non-standard residues; d marks the D form. Peptide text beside a SMILES is read from it. * marks the point of attachment. C20 diacid = O=C(O)CCCCCCCCCCCCCCCCCCC(=O)*; γGlu = O=C(O)[C@H](CCC(=O)[*:2])N[*:1]; Hyp = O=C(O)[C@@H]1C[C@@H](O)CN1
How the values were obtained:
hAMY3 receptor = target: T1, hAMY3 receptor (Homo sapiens, UniProt O60896+P30988); assay: cAMP assay for in vitro receptor activation, hAMY3-R; assay type: cell-based; conditions: cAMP assay, hAMY3 receptor; read-out: hAMY3R EC50
T1 sequence (P30988 25-474): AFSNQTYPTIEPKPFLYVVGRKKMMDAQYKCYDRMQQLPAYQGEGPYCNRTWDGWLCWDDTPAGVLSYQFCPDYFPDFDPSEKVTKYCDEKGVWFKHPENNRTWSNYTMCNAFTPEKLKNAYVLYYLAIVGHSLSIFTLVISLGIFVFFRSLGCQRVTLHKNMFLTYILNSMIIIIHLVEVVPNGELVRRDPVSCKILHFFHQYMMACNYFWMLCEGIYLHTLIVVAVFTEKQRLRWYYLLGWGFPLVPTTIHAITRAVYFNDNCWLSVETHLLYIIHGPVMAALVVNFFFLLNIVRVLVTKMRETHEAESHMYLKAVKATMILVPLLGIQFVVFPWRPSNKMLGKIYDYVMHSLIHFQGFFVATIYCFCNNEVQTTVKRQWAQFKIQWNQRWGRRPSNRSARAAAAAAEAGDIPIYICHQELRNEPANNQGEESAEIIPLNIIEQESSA
T1 sequence (O60896 24-148 partner): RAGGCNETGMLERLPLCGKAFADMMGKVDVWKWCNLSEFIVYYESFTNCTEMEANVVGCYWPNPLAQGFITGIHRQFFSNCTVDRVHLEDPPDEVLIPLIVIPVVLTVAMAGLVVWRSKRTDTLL
Summary of the method: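 Stable hAMY3 cells; DPBS + 0.05% casein + 0.5 mM IBMX; graded compound doses, 30 min, RT; cAMP via HTRF Gs kit, TR-FRET read at 1 h.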

[1] = Acute food intake study in lean rats; assay type: in vivo, rat; conditions: 10 nmol/kg, single SC injection, lean healthy rats; for Average cumulative food intake: up to 48 h, P < 0.001 vs vehicle
Procedure: General Protocols for Acute Food Intake Study
The effect on cumulative food intake was measured in male Sprague Dawley rats (6 weeks of age, Taconic, Denmark) following a single dose using a fully automated food intake monitoring system (HM-2; MBRose ApS, Faaborg, Denmark), allowing for advanced synchronous real-time monitoring of food intake behaviour of individual animals. The animals were housed in groups of 4 in a light-, temperature-, and humidity-controlled room (a 12/12 LD cycle, lights on at 02:00 AM; 22±2° C.; 50% relative humidity). The mice had ad libitum access to regular chow diet (Altromin 1324, Brogaarden A/S, Lynge, Denmark) and domestic quality tap water. Mice arrived at day 7, and a minimum of 5 days of habituation to the system was allowed prior to beginning of the study. During these days, the animals were handled daily to accustom them to the experimental paradigm. On the day of dosing, the animals were randomized into groups according to body weight. Animals were fasted for four hours prior to dosing. Animals were dosed SC 30 or 180 min prior to lights out, and food intake data were collected automatically for a total of 48 h post-dosing with automatic food recordings every 5 min.

[2] = Physical stability of peptide analogues (Thioflavin T fibrillation); assay type: physicochemical; conditions: maximum ThT signal normalized between hAMY maximum and buffer background; 40° C., shaking, four days; pH 7 per table title
Summary of the method: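 1 h in 50 mM NaOAc pH 4 / 50 mM NaPi pH 7; + ThT 4 μM final; 40 °C, 700 rpm linear shake 5 min pre-read; ex 450, em 480 nm q10 min × 4 d; LOESS smoothing; max signal normalised to hAMY max vs buffer blank.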

Row | EC50 (hAMY3 receptor) | Max ThT signal (%) [2] | Compound | cumulative food intake, % to vehicle [1] | Average cumulative food intake [1]
1 | 13 pM | – | CC[C@H](C)[C@H](NC(=O)[C@H](CCC(N)=O)NC(=O)[C@H](Cc1c[nH]cn1)NC(=O)[C@H](C)NC(=O)[C@H](CC(C)C)NC(=O)[C@H](CCCNC(=N)N)NC(=O)[C@H](CCC(N)=O)NC(=O)[C@@H](NC(=O)[C@@H](NC(=O)[C@@H]1CSSC[C@H](NC(=O)[C@H](CCCCN)NC(=O)CC[C@H](NC(=O)CCCCCCCCCCCCCCCCCCC(=O)O)C(=O)O)C(=O)N[C@@H](CC(N)=O)C(=O)N[C@@H]([C@@H](C)O)C(=O)N[C@@H](C)C(=O)N[C@@H]([C@@H](C)O)C(=O)N1)[C@@H](C)O)C(C)C)C(=O)N[C@@H](C)C(=O)N[C@@H](CCC(N)=O)C(=O)N[C@@H](Cc1ccccc1)C(=O)N[C@H](C(=O)N[C@@H](CC(=O)O)C(=O)N[C@@H](CCCCN)C(=O)N[C@@H](CC(=O)O)C(=O)N[C@@H](CCCCN)C(=O)N[C@@H](CC(=O)O)C(=O)N[C@@H](CC(N)=O)C(=O)N[C@H](C(=O)N[C@@H](C)C(=O)N1CCC[C@H]1C(=O)N1CCC[C@H]1C(=O)N[C@H](C(=O)N[C@@H](CC(N)=O)C(=O)N[C@H](C(=O)NCC(=O)N[C@@H](CO)C(=O)N[C@@H](CC(N)=O)C(=O)N[C@@H](CO)C(=O)N1C[C@H](O)C[C@H]1C(N)=O)C(C)C)[C@@H](C)O)C(C)C)[C@@H](C)O [compound 69] ({C20 diacid-γGlu}-KCNTATCTVQRLAHQIAQFTDKDKDNVAPPTNVGSNS[Hyp]-NH2; disulfide 2-7) | 17.52% | 7.13 g
2 | 27 pM | 4.800% | CC[C@H](C)[C@H](NC(=O)[C@H](CCCCN)NC(=O)[C@@H](NC(=O)[C@H](CCCNC(=N)N)NC(=O)[C@@H]1CCCN1C(=O)[C@H](C)NC(=O)[C@@H](NC(=O)[C@H](CC(N)=O)NC(=O)[C@H](CC(=O)O)NC(=O)[C@H](CCCCN)NC(=O)[C@H](CC(=O)O)NC(=O)[C@H](CCCCN)NC(=O)[C@H](CC(=O)O)NC(=O)[C@@H](NC(=O)[C@H](Cc1ccccc1)NC(=O)[C@H](CCC(N)=O)NC(=O)[C@H](Cc1ccc(O)cc1)NC(=O)[C@@H](NC(=O)[C@H](CCC(N)=O)NC(=O)[C@H](Cc1c[nH]cn1)NC(=O)[C@H](C)NC(=O)[C@H](CC(C)C)NC(=O)[C@H](CCCNC(=N)N)NC(=O)[C@H](CCC(N)=O)NC(=O)[C@@H](NC(=O)[C@@H](NC(=O)[C@@H]1CSSC[C@H](NC(=O)CN)C(=O)N[C@@H](CCCNC(=N)N)C(=O)N[C@@H](Cc2ccccc2)C(=O)NCC(=O)N[C@@H]([C@@H](C)O)C(=O)N1)[C@@H](C)O)C(C)C)[C@@H](C)CC)[C@@H](C)O)C(C)C)[C@@H](C)O)C(=O)NCC(=O)N1CCC[C@H]1C(=O)N[C@@H](CC(N)=O)C(=O)NCC(=O)N1C[C@H](O)C[C@H]1C(N)=O [compound 124] (H-GCRFGTCTVQRLAHQIYQFTDKDKDNVAPRTKIGPNG[Hyp]-NH2; disulfide 2-7) | 59.46% | 24.2 g

Source: patent US12139520B2 (priority 2020, dated 2024)
